In ChEMBL document CHEMBL6096667, “Design, synthesis and biological evaluation of biaryl amide derivatives as modulators of multi-drug resistance” (Eur J Med Chem, 2025):

Columns and labels:
A2780/Taxol [1] = experiment: Reversal of paclitaxel resistance in human Paclitaxel-resistant A2780/T cells assessed as reversal fold by measuring ratio of paclitaxel IC50 to paclitaxel IC50 in presence of test compound at 1 uM incubated for 48 hrs by MTT assay; assay type: functional
A2780/Taxol [2] = experiment: Inhibition of cell proliferation of human Paclitaxel-resistant A2780/T cells incubated for 48 hrs in presence of PTX by MTT assay; assay type: functional, cell-based
A2780/Taxol [3] = experiment: Inhibition of cell proliferation of human Paclitaxel-resistant A2780/T cells at 1 uM incubated for 48 hrs in presence of PTX by MTT assay relative to control; assay type: functional
A2780/Taxol [4] = experiment: Inhibition of cell proliferation of human Paclitaxel-resistant A2780/T cells at 10 uM incubated for 48 hrs in presence of PTX by MTT assay relative to control; assay type: functional
A2780/Taxol [5] = experiment: Inhibition of cell proliferation of human Paclitaxel-resistant A2780/T cells at 0.01 uM incubated for 48 hrs in presence of PTX by MTT assay relative to control; assay type: functional
A2780/Taxol [6] = experiment: Inhibition of cell proliferation of human Paclitaxel-resistant A2780/T cells at 0.1 uM incubated for 48 hrs in presence of PTX by MTT assay relative to control; assay type: functional
[7] = Reversal of paclitaxel resistance in human A2780/CDDP cells assessed as reversal fold by measuring ratio of paclitaxel IC50 to paclitaxel IC50 in presence of test compound by MTT assay; assay type: functional
[8] = target: ATP-dependent translocase ABCB1 (Homo sapiens, UniProt P08183); experiment: Binding affinity to CM5 sensor chip-immobilized human P-gp assessed as dissociation constant by SPR analysis
Chain of ATP-dependent translocase ABCB1 (P08183 whole entry): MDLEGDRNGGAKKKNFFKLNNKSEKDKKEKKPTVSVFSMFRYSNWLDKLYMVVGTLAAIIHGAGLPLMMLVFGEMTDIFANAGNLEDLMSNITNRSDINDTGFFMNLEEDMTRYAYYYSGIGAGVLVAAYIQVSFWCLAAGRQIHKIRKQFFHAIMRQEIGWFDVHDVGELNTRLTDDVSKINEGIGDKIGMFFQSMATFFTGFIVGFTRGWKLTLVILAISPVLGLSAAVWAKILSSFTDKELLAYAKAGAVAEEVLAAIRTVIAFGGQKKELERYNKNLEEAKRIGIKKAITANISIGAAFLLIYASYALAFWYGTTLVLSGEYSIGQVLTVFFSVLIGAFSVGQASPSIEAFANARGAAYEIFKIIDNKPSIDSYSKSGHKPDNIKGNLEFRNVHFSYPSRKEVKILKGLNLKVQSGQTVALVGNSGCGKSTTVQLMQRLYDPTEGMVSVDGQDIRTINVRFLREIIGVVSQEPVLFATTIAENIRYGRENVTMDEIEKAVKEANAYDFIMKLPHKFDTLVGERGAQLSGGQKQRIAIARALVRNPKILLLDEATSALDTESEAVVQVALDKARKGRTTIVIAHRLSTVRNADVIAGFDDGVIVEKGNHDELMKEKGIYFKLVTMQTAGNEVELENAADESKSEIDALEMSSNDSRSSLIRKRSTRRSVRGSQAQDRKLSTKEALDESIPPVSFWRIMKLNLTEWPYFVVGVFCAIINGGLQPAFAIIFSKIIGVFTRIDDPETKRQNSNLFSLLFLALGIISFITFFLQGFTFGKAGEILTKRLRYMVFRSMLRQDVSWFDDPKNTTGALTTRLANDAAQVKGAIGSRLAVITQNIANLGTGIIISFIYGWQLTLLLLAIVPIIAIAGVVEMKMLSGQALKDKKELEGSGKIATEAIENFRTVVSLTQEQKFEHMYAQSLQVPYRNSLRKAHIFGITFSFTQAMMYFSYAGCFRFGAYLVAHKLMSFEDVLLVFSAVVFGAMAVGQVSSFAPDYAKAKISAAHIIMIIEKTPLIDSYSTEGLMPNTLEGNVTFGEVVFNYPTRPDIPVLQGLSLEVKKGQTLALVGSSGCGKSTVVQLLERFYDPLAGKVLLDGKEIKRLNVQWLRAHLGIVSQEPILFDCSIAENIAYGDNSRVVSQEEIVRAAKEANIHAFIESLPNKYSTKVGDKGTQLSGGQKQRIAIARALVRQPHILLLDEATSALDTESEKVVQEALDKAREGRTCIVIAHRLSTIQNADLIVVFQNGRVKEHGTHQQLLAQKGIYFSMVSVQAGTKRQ

[9] = Reversal of paclitaxel resistance in human CDDP-resistant A549 cells assessed as reversal fold by measuring ratio of paclitaxel IC50 to paclitaxel IC50 in presence of test compound by MTT assay; assay type: functional, CDDP-resistant A549 cell
A2780/Taxol [10] = experiment: Reversal of paclitaxel resistance in human Paclitaxel-resistant A2780/T cells by MTT assay; assay type: functional, cell-based

SMILES	IC50 (A2780/Taxol [2]) [µM]	inhibition at 1 µM (A2780/Taxol [3]) [%]	inhibition at 10 µM (A2780/Taxol [4]) [%]	inhibition at 0.01 µM (A2780/Taxol [5]) [%]	inhibition at 0.1 µM (A2780/Taxol [6]) [%]	also measured
Cn1cc(C(=O)NCc2ccc(-c3cccs3)cn2)c2ccccc21	> 50	6	80	–	–	Ratio IC50 (A2780/Taxol [1]): 47
O=C(Nc1ncc(-c2ccccc2)cn1)c1cccnc1	0.11	–	–	34	49	–
O=C(Nc1ccc(-c2ccccc2)cc1[N+](=O)[O-])c1cccnc1	0.027	–	–	48	74	–
O=C(Nc1ccc(-c2ccccc2)cc1OC(F)(F)F)c1cccnc1	3.54	–	–	31	42	–
Cn1cc(C(=O)NCc2ccc(-c3cnc4ccccc4c3)cn2)c2ccccc21	> 50	46	76	–	–	Ratio IC50 (A2780/Taxol [1]): 9
O=C(Nc1nc(-c2ccccc2)co1)c1cccnc1	10.1	–	–	11	30	–
Cn1c(C(=O)NCc2ccc(-c3ccccc3)cn2)cc2ccccc21	> 50	11	37	–	–	–
Cn1cccc1C(=O)NCc1ccc(-c2ccccc2)cn1	> 50	10	30	–	–	–
Cn1cc(C(=O)NCc2ccc(-c3ccc(F)cc3)cn2)c2ccccc21	> 50	25	63	–	–	–
O=C(Nc1ccc(-c2ccccc2)c2nonc12)c1cccnc1	3.09	–	–	14	33	–
Cn1cc(C(=O)NCc2ccc(-c3cccc(F)c3)cn2)c2ccccc21	> 50	8	33	–	–	–
O=C(NCc1ccc(-c2ccccc2)cn1)c1ccc(F)c(F)c1	20	22	46	–	–	–
O=C(NCc1ccc(-c2ccccc2)cn1)c1c(F)c(F)c(F)c(F)c1F	> 50	13	39	–	–	–
O=C(Nc1ccc(-c2ccccc2)nc1)c1cccnc1	13.6	–	–	9	33	–
Cn1cc(C(=O)NCc2ccc(-c3ccc(OCc4ccccc4)cc3)cn2)c2ccccc21	> 50	41	78	–	–	Ratio IC50 (A2780/Taxol [1]): 54
Cc1ccc(C(=O)NCc2ccc(-c3ccccc3)cn2)cn1	> 50	12	35	–	–	–
CCCCc1ccc(-c2ccc(CNC(=O)c3cn(C)c4ccccc34)nc2)cc1	> 50	37	52	–	–	–
O=C(Nc1ncc(-c2ccccc2)cc1O)c1cccnc1	2.11	–	–	11	38	–
O=C(Cc1cccnc1)Nc1ccc(-c2ccccc2)cn1	> 50	39	34	–	–	–
O=C(Nc1ccc(-c2ccccc2)c2ccccc12)c1cccnc1	19	–	–	31	35	–
Cn1cc(C(=O)NCc2ccc(-c3ccccc3)cn2)c2ccccc21	> 50	30	81	–	–	Ratio IC50 (A2780/Taxol [1]): 18; Ratio IC50 [7]: 5; Kd [8]: 1.66 µM; Ratio IC50 [9]: 3
N#Cc1cc(-c2ccccc2)cnc1NC(=O)c1cccnc1	0.08	–	–	35	59	–
O=C(Cc1cccnc1)NCc1ccc(-c2ccccc2)cn1	> 50	33	42	–	–	–

SMILES	IC50 (A2780/Taxol [2]) [µM]	inhibition at 1 µM (A2780/Taxol [3]) [%]	inhibition at 10 µM (A2780/Taxol [4]) [%]	inhibition at 0.01 µM (A2780/Taxol [5]) [%]	inhibition at 0.1 µM (A2780/Taxol [6]) [%]	also measured
O=C(NCc1ccc(-c2ccccc2)cn1)c1cccnc1	30.5	32	65	–	–	–
Cn1cc(C(=O)NCc2ccc(-c3cccc4ccccc34)cn2)c2ccccc21	> 50	46	83	–	–	Ratio IC50 (A2780/Taxol [1]): 138; EC50 (A2780/Taxol [10]): 0.126 µM; Ratio IC50 [7]: 6; Ratio IC50 [9]: 4
O=C(Nc1cccnc1)Nc1ccc(-c2ccccc2)cn1	> 50	10	30	–	–	–
COc1ccc(-c2ccc(CNC(=O)c3cn(C)c4ccccc34)nc2)cc1F	> 50	40	71	–	–	Ratio IC50 (A2780/Taxol [1]): 78
COc1ccc(CCN(C)CCCC(C#N)(c2ccc(OC)c(OC)c2)C(C)C)cc1OC (centres undefined)	–	57	76	22	47	–
Cn1cc(C(=O)NCc2ccc(-c3ccc4c(c3)c3ccccc3n4-c3ccccc3)cn2)c2ccccc21	> 50	14	28	–	–	–
O=C(/C=C/c1cccnc1)NCc1ccc(-c2ccccc2)cn1	22.1	33	38	–	–	–
O=C(Nc1ccc(-c2ccccc2)cn1)c1cccnc1	0.88	–	–	28	55	–
O=S(=O)(Nc1ccc(-c2ccccc2)cn1)c1cccnc1	18.7	7	37	–	–	–
O=C(NCc1ccc(-c2ccccc2)cn1)c1ccc(Br)nc1	> 50	12	37	–	–	–
COc1ccc(-c2ccc(CNC(=O)c3cn(C)c4ccccc34)nc2)c(OC)c1	> 50	36	80	–	–	Ratio IC50 (A2780/Taxol [1]): 38
O=C(NCc1ccc(-c2ccccc2)cn1)c1ccc2cccnc2c1	18.3	31	67	–	–	–
COc1cc(C(=O)NCc2ccc(-c3ccccc3)cn2)cc(OC)c1OC	22.9	10	51	–	–	–
Cn1cc(C(=O)NCc2ccc(-c3ccco3)cn2)c2ccccc21	> 50	20	32	–	–	–
O=C(Nc1ncc(-c2ccccc2)cc1F)c1cccnc1	0.32	–	–	11	50	–
O=C(NCc1ccc(-c2ccccc2)cn1)c1cncnc1	32.7	24	61	–	–	–
O=C(Nc1c(F)c(F)c(-c2ccccc2)c(F)c1F)c1cccnc1	0.8	–	–	25	46	–
O=C(Nc1ccc(-c2ccccc2)c([N+](=O)[O-])c1)c1cccnc1	11.2	–	–	25	37	–
O=C(Nc1ccc(-c2ccccc2)c(F)c1F)c1cccnc1	0.78	–	–	27	46	–
O=C(Nc1ccc(-c2ccccc2)c2cccnc12)c1cccnc1	33.2	–	–	6	39	–
O=C(Nc1ccc(-c2ccccc2)cc1)c1cccnc1	12.6	–	–	29	37	–
O=C(NCc1ccc(-c2ccccc2)cn1)c1ccc(C(F)(F)F)nc1	> 50	9	31	–	–	–
